Series [1] has as its system P388 mouse leukemia cells. Description: P388 mouse leukemia cell assay. As to conditions: 48 hours. In kind it is cell-based. As to the method:
P388 mouse leukemia cells are grown in Dulbecco's minimum essential medium with Earle's salts (MEM) with 10% horse serum, 4 mM glutamine, and 20 ug/ml gentamicin (Biologos, Inc.). Cells are incubated in 10% CO2 and subcultured 2 times per week. 1. Add compound to each well of a 24-well plate or tube and allow solvent to evaporate to dryness. 2. Add 2 ml (1.2×10^5) cells to each well or tube and mix. 3. Incubate in 10% CO2 at 37° for 48 hours. 4. Read plates with an inverted microscope, scoring activity from 1+ to 4+ as follows: ND (not detectable),>90%; 1+, 75-90%; 2+, 50-74%; 3+, 25-49%; 4+, <25% of control growth. Cell counts are performed on each tube and results are reported as percent of control. Positive control--Vinblastine or Vincristine in aqueous solution.

A further series deals with VSV. It counts as cell-based, vesicular stomatitis virus.
The subject of another series is HSV-1. Description: Antiviral disc assay, HSV-1 in CV-1 cells. It counts as cell-based, herpes simplex type 1.
The test system of series [2] is HCT-8 human colon tumor cells. Description: Human tumor cell line assay, HCT-8 colon. It counts as cell-based. As to conditions: 120 hours, read-out: Antitumor activity, HCT-8. How it is done: (§1) HCT-8 human colon tumor cells are grown in RPM1 1640 medium (GIBCO). A-549 human lung carcinoma cells are cultured in Dulbecco medium (Biologos, Inc.). MCF-7, MDA-MB 231 and T47D human breast carcinoma cells are grown in Eagles MEM medium. All media are supplemented with 10% fetal bovine serum and contain 50 μg/ml gentamicin. All human tumor cell lines are incubated in 5% CO2 at 37° and subcultured once a week. The seeding levels are 350,000 MCF-7 cells, 60,000 HCT-8 cells and 300,000 A-549 cells per T25 flask.
(§2) 2. Incubate in 5% CO2 for 48 hours.
(§3) 3. Add compound (50 μg)to each well and incubate for an additional 120 hours.
(§4) 4. Discard medium and stain with methylene blue (HCT-8) or crystal violet (A549 and MCF-7) for 30 minutes.
(§5) 5. Compare cell density of drug-treated well with that of the control (no drug added) as follows: ND (not detectable), >90%; 1+, 75-90%; 2+, 50-74%; 3+, 25-49%, 4+, <25% of control growth.

The subject of series [3] is A-549 human lung carcinoma cells. Description: Human tumor cell line assay, A-549 lung. Conditions: 120 hours, read-out: Antitumor activity, A-549. It counts as cell-based. How it is done:
as §1, §2, §3, §4, §5

Series [4] concerns MDA-MB 231 human breast carcinoma cells. Description: Human tumor cell line assay, MDAMB mammary. It counts as cell-based. Conditions: 120 hours, read-out: Antitumor activity, MDAMB. How it is done: as §1, §2, §3, §4, §5
In another series the test system is human tumor cell lines. Description: Human tumor cell line assay (cell lines together). It counts as cell-based. Conditions: 120 h, in concentrations of at least 10 μg/ml, read-out: concentrations with good activity against human tumor cell lines. As to the method: as §1, §2, §3, §4, §5
The next series deals with CV-1 cells. Description: Cytotoxicity in the antiviral disc assay.

≈ marks a conversion by molar mass, not a printed value. Read-outs that look alike come from different tables or passages of the source. Marks after values point to notes of the source that are not given here.

This note sets out measurements from patent US4801607A, “Antiviral furanoditerpenoids” (Harbor Branch Oceanographic Institution, Inc., priority 1987, dated 1989).

The term IC50 denotes the concentration that inhibits the measured activity by half. Low readings indicate higher potency, high ones lower potency. In series [1], `C[C@]12CC(=O)[C@H](O)[C@](C)(CO)[C@@H]1CC[C@@]1(C)c3cocc3CC[C@H]21` [Composition 3, epispongiadiol] displayed a concentration for half-maximal inhibition (IC50) of 8 µg/mL (≈ 24.1 µM). Also, the “VSV Activity” value with VSV (20 μg/disk) is recorded as “+”. For the same compound, the results for the “HSV-1 Activity” value in the series with HSV-1 (6.25 μg/disk) and with HSV-1 (12.5 μg/disk) were “+” and “++”, respectively.

In turn, `C[C@]12C[C@@H](O)C(=O)[C@](C)(CO)[C@@H]1CC[C@@]1(C)c3cocc3CC[C@H]21` [Composition 1, isospongiadiol] came in with a half-inhibitory concentration (IC50) in series [1] of 5 µg/mL (≈ 15 µM). The activity at 1 µg/mL in series [2] (dose 1 μg/ml) was over 90%; in series [3] (A549, dose 1 μg/ml), over 90%; in series [4] (dose 1 μg/ml), over 90%. Further, the activity at 10 µg/mL in series [2] (dose 10 μg/ml) is 25 to 49%; in series [3] (A549, dose 10 μg/ml), 25 to 49%; in series [4] (dose 10 μg/ml) it was 25 to 49%. In addition, the activity at 50 µg/mL was under 25% in series [2] (dose 50 μg/ml); under 25% in series [3] (A549, dose 50 μg/ml); under 25% in series [4] (dose 50 μg/ml). For the same compound, in the series with human tumor cell lines, the minimal effective concentration is at least 10 µg/mL. In the series on VSV (20 μg/disk), the “VSV Activity” value was “+”. For the same compound, the entries for the “HSV-1 Activity” value in the series with HSV-1 (2 μg/disk) and in the series with HSV-1 (20 μg/disk) were “++” and “+++”, respectively. The Cytotoxicity in the series with CV-1 cells (2 μg/disk) and in the series with CV-1 cells (20 μg/disk) was 0* in each case.

Compound `C[C@]12CC(=O)[C@@H](O)[C@](C)(CO)[C@@H]1CC[C@@]1(C)c3cocc3CC[C@H]21` [Composition 2, spongiadiol] had a concentration for half-maximal inhibition (IC50) in series [1] of 0.5 µg/mL (≈ 1.5 µM). In addition, the “VSV Activity” value is reported as “++” with VSV (0.5 μg/disk) and “+++” in the series on VSV (1 μg/disk). Further, the “HSV-1 Activity” value in the series on HSV-1 (0.5 μg/disk) was “+++”.
